Assay results reported in patent US10106523B2, “Amide compound” (ASTELLAS PHARMA INC., priority 2014, dated 2018).

Key:
SD rats = assay: Evaluation on rat gastrointestinal disorder (7-day oral administration, hematology, blood chemistry, histopathology); type: in vivo; conditions: 3 mg/kg po for 7 days
Method: Test Example 10: Evaluation on Rat Gastrointestinal Disorder
SD rats (male, 7-week old) were used. A test compound dissolved in a mixed solution of PEG 400: 20% Tween 80: 1 mol/L aqueous NaHCO3 solution=1:4:5 was orally administered at a dose of 3 mg/kg (n=5, 5 mL/kg) for 7 days. The aforementioned mixed liquid was orally administered to a group not treated with the test drug (n=5) at a volume of 5 mL/kg for 7 days. Blood was collected under fasting overnight for hematology and blood chemistry tests on the following day after the final administration. After blood collection, the animal which had been euthanized by exsanguination was immediately necropsied, and the stomach, duodenum, jejunum, ileum, cecum, colon, rectum, and liver were excised therefrom. The excised organs were fixed in a 10% neutral buffered formalin solution and used for histopathological evaluation.

rat EP3 receptor = molecular target: T1, rat EP3 receptor (Rattus norvegicus, UniProt P34980); assay: Selectivity test: antagonistic action on rat EP3 receptor (intracellular Ca2+, HEK-293 cells); type: cell-based; conditions: PGE2 100 nmol/L, HEK-293 cells stably expressing rat EP3; read-out: Concentration up to which no inhibitory action of 50% or more on the increase in intracellular Ca2+ concentration due to PGE2 through the rat EP3 receptor
T1 construct: expressed in transfected cells
T1 sequence (P34980 1-365): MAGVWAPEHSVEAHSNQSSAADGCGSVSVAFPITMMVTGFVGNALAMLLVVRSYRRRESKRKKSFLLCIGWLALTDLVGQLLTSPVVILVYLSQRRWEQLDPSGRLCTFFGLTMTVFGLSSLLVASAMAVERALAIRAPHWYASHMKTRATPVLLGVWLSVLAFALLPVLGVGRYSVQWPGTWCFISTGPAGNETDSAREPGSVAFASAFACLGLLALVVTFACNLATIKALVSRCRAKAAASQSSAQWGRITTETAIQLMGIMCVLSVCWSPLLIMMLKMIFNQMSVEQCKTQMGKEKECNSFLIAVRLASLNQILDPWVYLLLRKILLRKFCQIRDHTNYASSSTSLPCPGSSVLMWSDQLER
Method: Test Example 9: Evaluation Test of Receptor Antagonistic Action on Rat EP1/EP2/EP3 Receptor (Selectivity Test)
The antagonistic action of Compound A on other subtypes ([…], EP2, and EP3) of the rat-derived PGE2 receptor was evaluated. For EP1 and EP3, the intracellular Ca^2+ amount was used as an indicator, and for EP2, the intracellular cAMP amount was used as an indicator, so as to investigate the action of the test compound.
Construction of Rat EP1, EP2, or EP3 Receptor Expressing Vector: A rat EP1 receptor gene (GenBank accession No.: D88751.1), a rat EP2 receptor gene (GenBank accession No.: NM_031088.1), or a rat EP3 receptor gene (GenBank accession No.: NM_012704.1) were inserted respectively into an expression vector pcDNA3.1-V5-His-TOPO (Invitrogen Inc.).
Construction of Cell Stably Expressing Rat EP1, EP2, or EP3 Receptor: […]
The intracellular Ca^2+ concentration was measured using FLIPR tetra (Molecular Devices, LLC.) with the fluorescence intensity of the Dye as an indicator. […] By taking the Ca^2+ concentration when PGE2 was added to a final concentration of 100 nmol/L as 100%, and taking the Ca^2+ concentration when PGE2 was not added as 0%, the Ca^2+ concentration in percentage with a treatment with the compound was calculated.

Cc1nn(Cc2cc3ccccc3cn2)c(C(=O)N[C@@H](C)c2ccc(C(=O)O)cc2)c1Br [Compound A, 4-[(1S)-1-({[4-bromo-1-(isoquinolin-3-ylmethyl)-3-methyl-1H-pyrazol-5-yl]carbonyl}amino)ethyl]benzoic acid]
Findings indicating abnormality (hematology, blood chemistry, histopathology of gastrointestinal organs and liver) (SD rats): not observed
IC50 (rat EP3 receptor): > 10 µM
